Source: patent US20250243194A1, “ANTAGONIST OF ADENOSINE RECEPTORS” (AdoRx Therapeutics Limited, priority 2022, published 2025)

What was measured:
[1] = molecular target: human Adenosine A1 receptor (Homo sapiens (Human), UniProt P30542); assay: Adenosine receptor TR-FRET binding assay (A1); conditions: inhibition of binding of 100 nM CA200645; CHO cell membranes; Ki from IC50 by Cheng and Prusoff
Outline: (§1)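 Compounds incubated 2 h at room temperature with membranes from CHO cells expressing terbium-labelled human receptors, competing with the fluorescent antagonist CA200645 (30 nM for A2b; 100 nM for A1, A2a and A3). Read by TR-FRET (665/620 nm); non-specific binding defined with 10 μM XAC. Ki derived from IC50 via Cheng-Prusoff.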

[2] = molecular target: human Adenosine A2a receptor (Homo sapiens (Human), UniProt P29274); assay: Adenosine receptor TR-FRET binding assay (A2a); conditions: inhibition of binding of 100 nM CA200645; CHO cell membranes; Ki from IC50 by Cheng and Prusoff
Outline: as §1

[3] = molecular target: human Adenosine A2b receptor (Homo sapiens (Human), UniProt P29275); assay: Adenosine receptor TR-FRET binding assay (A2b); conditions: inhibition of binding of 30 nM CA200645; CHO cell membranes; Ki from IC50 by Cheng and Prusoff
Outline: as §1

human PBMCs = assay: CD3/CD28 stimulated IL-2 release NECA reversal assay in human PBMCs; type: cell-based; conditions: PBMC, reversal of 1 uM NECA, 24 hours
Experimental: Blood is drawn from healthy volunteers using sodium citrate as the anticoagulant (0.3% final concentration). After centrifugation of the blood over Histopaque-1077, PBMCs are collected from the Histopaque/plasma interface and washed twice in PBS (300 g for 10 mins at room temp). Cells are plated at 50,000 cells/well in 150 μl RPMI/10% FCS in 96-well cell culture plates that have been precoated with 1 μg/ml CD3 antibody. 50 μl diluted compound mix is added to the cells, to obtain final concentrations of 1 μg/ml CD28 antibody, 1 uM NECA and 0.003-10 μM adenosine receptor antagonist. Assay plates are incubated for 24 hours at 37° C. in a humidified incubator. Culture supernatant is tested for IL-2 levels using the human IL-2 Tissue Culture Kit (Meso Scale Discovery).

[4] = system: CD8+ T cells in human whole blood; assay: Measurement of pCREB in CD8+ T cells in human whole blood; type: cell-based; conditions: T-cell, 3 μM NECA, rolipram, FACS
Experimental: Heparinised human whole blood was pre-incubated at 37° C. with serial dilutions of A2a antagonists for 20 min. and the phosphodiesterase inhibitor rolipram to amplify the pCREB response. The adenosine receptor agonist NECA is then added at a final concentration of 3 μM and following a 60 min incubation the blood is fixed and red blood cells lysed. White blood cells are isolated, permeabilized and stained with directly conjugated fluorescent antibodies to phospho-CREB (Alexa Fluor 488) and CD8 (Alexa Fluor 647) and the level of phospho-CREB in CD8+ T cells is measured by FACS using a BD Accuri C6 Flow Cytometer.

[5] = system: immature monocyte-derived dendritic cells (MoDC); assay: MoDC pCREB assay; type: cell-based; conditions: Homo sapiens, Dendritic cell, CD209+/CD86-low cells, 1 μM NECA, 20 μM rolipram, largely specific to A2B
Experimental: Monocytes are isolated from human whole blood using CD14 microbeads (Miltenyi Biotec 130-050-201) and differentiated to immature monocyte-derived dendritic cells (MoDC) by culture for 5 days in Mo-DC Differentiation Medium (Miltenyi Biotec 130-094-812). MoDCs are seeded into fresh medium into U bottomed 96 well culture plates and pre-incubated at 37° C. with serial dilutions of A2A/B antagonists for 15 min. At the same time the cells are co-incubated with the phosphodiesterase inhibitor rolipram (final concentration of 20 μM) to amplify the subsequent pCREB response. Adenosine receptor agonist NECA is then added at 1 μM final concentration, leading to an increase in CREB phosphorylation. Following a 45 min incubation at 37° C., the cells are fixed, permeabilized and stained with directly conjugated fluorescent antibodies to phospho-CREB (Alexa Fluor 488), CD209 (PerCP-Cy5.5) and CD86 (APC). Samples are analysed by FACS to measure fluorescence in corresponding channels, and also forward and Side scatter. The population of CD209+/CD86-low cells corresponding to immature dendritic cells is gated for analysis of pCREB levels.
Approximately 5% of the analysed cells are positive for detection of pCREB in the absence of agonist stimulation, representing the background signalling of all pathways upstream of CREB. Following NECA stimulation this is increased to ˜80% pCREB+ve, and this increase is essentially fully reversible by A2B or dual A2A/B antagonists.
IC50 is represented as the point of inflection of a sigmoidal curve

human Adenosine A2a receptor, sequence (P29274 whole entry): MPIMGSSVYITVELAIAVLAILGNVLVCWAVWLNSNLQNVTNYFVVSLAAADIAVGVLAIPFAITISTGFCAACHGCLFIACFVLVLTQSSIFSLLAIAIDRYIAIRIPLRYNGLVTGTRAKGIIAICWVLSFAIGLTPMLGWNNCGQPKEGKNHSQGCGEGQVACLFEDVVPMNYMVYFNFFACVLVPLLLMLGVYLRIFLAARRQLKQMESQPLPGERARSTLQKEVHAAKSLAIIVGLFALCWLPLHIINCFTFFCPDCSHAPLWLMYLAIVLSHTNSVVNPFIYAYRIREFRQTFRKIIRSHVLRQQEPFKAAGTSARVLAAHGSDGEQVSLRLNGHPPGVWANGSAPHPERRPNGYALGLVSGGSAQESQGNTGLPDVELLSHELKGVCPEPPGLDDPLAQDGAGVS
human Adenosine A1 receptor, sequence (P30542 whole entry): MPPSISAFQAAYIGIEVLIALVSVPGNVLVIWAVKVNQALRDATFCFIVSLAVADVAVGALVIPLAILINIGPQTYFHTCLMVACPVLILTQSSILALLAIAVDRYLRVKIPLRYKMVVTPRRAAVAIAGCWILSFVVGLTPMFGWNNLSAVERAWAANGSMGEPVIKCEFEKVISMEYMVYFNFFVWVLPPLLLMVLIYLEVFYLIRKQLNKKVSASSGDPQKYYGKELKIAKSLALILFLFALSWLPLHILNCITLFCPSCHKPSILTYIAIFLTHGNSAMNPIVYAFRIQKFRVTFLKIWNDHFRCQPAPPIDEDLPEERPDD
human Adenosine A2b receptor, sequence (P29275 whole entry): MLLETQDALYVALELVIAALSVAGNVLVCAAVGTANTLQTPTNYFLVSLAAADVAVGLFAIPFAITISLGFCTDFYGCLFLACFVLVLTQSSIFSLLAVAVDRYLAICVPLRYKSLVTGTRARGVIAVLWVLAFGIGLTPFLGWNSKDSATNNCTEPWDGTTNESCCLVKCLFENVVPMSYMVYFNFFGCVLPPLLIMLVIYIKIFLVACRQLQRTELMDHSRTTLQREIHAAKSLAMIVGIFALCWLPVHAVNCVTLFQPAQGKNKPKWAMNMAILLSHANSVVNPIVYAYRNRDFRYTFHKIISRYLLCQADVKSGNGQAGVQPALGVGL

SMILES | Ki [1] [nM] | Ki [2] [nM] | Ki [3] [nM] | IC50 (human PBMCs) [nM] | IC50 [4] [nM] | IC50 [5] [nM]
Cc1ncnc2ccc(-c3sc(NC(=O)N4CCC5(CC4)CN(C)C(=O)O5)nc3-c3cccc(C#N)c3)cc12 [Example 7.26, N-[4-(3-Cyanophenyl)-5-(4-methylquinazolin-6-yl)thiazol-2-yl]-3-methyl-2-oxo-1-oxa-3,8-diazaspiro[4.5]decane-8-carboxamide] | 19 | 0.13 | 1.8 | 0.5 | 15 | 2
Cc1ncnc2ccc(-c3sc(NC(=O)N4CCN(C5COC5)CC4)nc3-c3cccc(C#N)c3)cc12 [Example 7.28, N-[4-(3-Cyanophenyl)-5-(4-methylquinazolin-6-yl)thiazol-2-yl]-4-(oxetan-3-yl)piperazine-1-carboxamide] | 65 | 0.64 | 3.3 | 0.9 | 22 | 5
Cc1ncnc2ccc(-c3sc(NC(=O)N4CCC5(CCC(=O)N5)CC4)nc3-c3cccc(C#N)c3)cc12 [Example 7.23, N-[4-(3-Cyanophenyl)-5-(4-methylquinazolin-6-yl)thiazol-2-yl]-2-oxo-1,8-diazaspiro[4.5]decane-8-carboxamide] | 10 | 0.13 | 1.1 | 0.8 | 30 | 3
